99 molecules from ChEMBL document CHEMBL3507680, “University of Dundee, Gates Library screen for HepG2 cell viability” can be followed below.

The data set is described as follows: Human HepG2 cell viability assay in 384 well format. The format is toxicity, cell-based. Also noted: dose 125 nL, time 70.5 hour; cytotoxicity at 70.5 h: concentration not given beside the values. The conditions noted are these: HepG2 cells, read-out: Inhibition.
Consider `CC(C(=O)N1CCCN(c2ncccc2C#N)CC1)n1cccn1` (centres undefined), for which the cytotoxicity at 70.5 h is -9.79%.
Consider `Cc1nc(-c2ccccc2)n(CC(=O)NC(C)C)n1`, for which the cytotoxicity at 70.5 h is -1.29%.
As to `Cc1nc(C)n(CC2CN(Cc3cccc(OC(C)C)c3)CCO2)n1` (centres undefined), the cytotoxicity at 70.5 h was -10.6%.
Under `Cc1ccc2nc(N3CCN(CC(=O)NC(C)C)CC3)cc(C)c2c1` stands -1.6%; under `CN(C)C[C@@H]1CN(C(=O)c2cc(S(N)(=O)=O)ccc2F)C[C@@H]1CO`, -4.5%; under `CC(C)CCn1cc(C(=O)NC2CCS(=O)(=O)C2)c2ccccc2c1=O` (centres undefined), -12.4%.
The figure for `Cc1oc(C)c(C(=O)NCc2cccc(C(N)=O)c2)c1C` is -4.54%.
`O=c1oc(-c2cccs2)nn1CC(O)c1ccccc1F` (centres undefined): the cytotoxicity at 70.5 h was -4.66%.
On to `COc1ccccc1-n1nc(CC(C)C)nc1CSc1nnc(N)s1`, for which the cytotoxicity at 70.5 h is -15.9%.
For `Cc1cc(C)n(C2CCCN(C(=O)c3ccc(N(C)C)nn3)C2)n1` (centres undefined), the cytotoxicity at 70.5 h is -4.23%.
In the case of `CN(C)C(=O)N1Cc2ccccc2C2(CCN(C3CCOCC3)CC2)C1`, the cytotoxicity at 70.5 h was -10.7%.
The figure for `CC(C)c1cc(NC(=O)CN2CCNC(=O)C2)on1` is -5.09%; for `O=C(Cc1cccs1)N1Cc2nc(COCC3CC3)oc2C1` it is 0.985%; for `Cc1cc(N(C)Cc2cc(C(C)(C)C)n[nH]2)nc(-c2cccnc2)n1` it is 41.6%.
The figure for `O[C@H]1[C@H](n2cc(CN3CCCC3)nn2)c2ccccc2C12CCNCC2` is -7.31%.
Under `Cn1cc(NC(=O)NCc2ccoc2)ccc1=O` stands -3.69%; under `Cc1cc(C(=O)N2CCCC(n3cncn3)C2)on1` (centres undefined), 26.7%.
With `Cc1cnn(CC2CCCCN2C(=O)CN(C)C2CC2)c1` (centres undefined), the cytotoxicity at 70.5 h came to 16.1%.
As to `Cc1cc(C(=O)N2CCCN(Cc3nccn3C)CC2)no1`, the cytotoxicity at 70.5 h is 12.6%.
Under `CC(C)(C)C(O)CN1CCN(CCOCC(F)(F)F)CC1` (centres undefined) stands -9.97%; under `O=C1N(CCCc2ccccc2)CCCC1(O)CNCC1CCCCC1` (centres undefined), 6.76%.
The figure for `c1cc(CN2C[C@H](OCC3CCOCC3)[C@H]3COC[C@H]32)co1` is 12.4%.
The figure for `Cc1nc(N(C)C)nc(N(C)Cc2cnccn2)c1C` is -9.41%; for `CN1CCC(C)(CN(C)Cc2ccc(CCC(C)(C)O)cc2)C1` (centres undefined) it is -6.89%; for `Cc1ccc(CNc2cc3[nH]c(O)nc3cc2C)cc1` it is -19.5%.
Consider `CC(C)Cc1cc(C(=O)N2CCC(C(=O)N3CCOCC3)CC2)on1`, for which the cytotoxicity at 70.5 h is -7.8%.
As for `N#Cc1cccnc1N1CCC(C2CCCCCN2C(N)=O)CC1` (centres undefined), the cytotoxicity at 70.5 h was -3.78%.
In the case of `N#Cc1cc(S(N)(=O)=O)ccc1N1CCc2c(Cl)cccc2C1`, the cytotoxicity at 70.5 h turned out to be 42.5%.
`CCc1nnc(CN(C)c2nccc(N3CCCC(O)C3)n2)o1` (centres undefined): the cytotoxicity at 70.5 h was found to be 27.2%.
The figure for `COC[C@@H]1CCC[C@]12CN(Cc1ccco1)CCO2` is -1.04%; for `Cc1cccc2c1NC1(CCCC1)NC2=O` it is -13.5%.
Under `Cc1nc2cc(C(=O)N3CCn4c(nnc4C4CC4)C3)ccc2s1` stands -2.23%; under `Cn1cnc2c1C(COCC1CCOCC1)CN(C(=O)C1CC=CC1)C2` (centres undefined), -2.11%.
The figure for `CN(CC1(CO)CC1)C(=O)C1CCC(=O)N(Cc2ccc(Cl)cc2)C1` (centres undefined) is -1.51%; for `CS(=O)(=O)CCN1CCC2(CCCN(C3CCOCC3)C2=O)C1` (centres undefined) it is -5.34%; for `CC(O)CN1CCC(CN(C)Cc2ccc(C(N)=O)cc2)CC1` (centres undefined) it is -9.95%.
With `Cc1csc(CN2CCC(C(=O)O)(n3ccc(-c4ccco4)n3)CC2)n1`, the cytotoxicity at 70.5 h was -7.21%.
On to `O=S(=O)(NCC1CCCN(Cc2ccccc2F)C1)C1CC1` (centres undefined), for which the cytotoxicity at 70.5 h was -5.21%.
As to `CN1[C@H](Cn2cncn2)C[C@@H]2CN(Cc3ccsc3)CC[C@@H]21`, the cytotoxicity at 70.5 h is -3.81%.
Under `Cc1noc(C)c1CC(=O)N1CCCC(Cn2ccnc2C)C1` (centres undefined) stands -16.8%.
`CCS(=O)(=O)NCCNc1c(C#N)cnc2c(F)cc(F)cc12`: the cytotoxicity at 70.5 h is -0.0012%.
Under `Cc1cnn(CC(C)NCc2ccc(S(C)(=O)=O)cc2)c1` (centres undefined) stands -1.78%.
Under `CC1CCN(CCCNC(=O)c2ccc(N(C)S(C)(=O)=O)cc2Cl)CC1` stands -4.93%.
The figure for `Cc1occc1C(=O)N1CCc2c(CNS(C)(=O)=O)cncc2C1` is -20.9%; for `O=C(NC1CCOC1)c1cccc(S(=O)(=O)NCCCc2ncc[nH]2)c1` (centres undefined) it is -13.4%.
For the molecule `Cc1nc2c(c(N3CCC(CN4CCCC4=O)CC3)n1)CCNCC2`, the cytotoxicity at 70.5 h was -5.86%.
Under `O=C(NC1CCCC1)N1CCCCC1c1nc(C2CC2)no1` (centres undefined) stands -15.1%; under `O=C(c1cccc(F)c1)N1CCCN(Cc2cscn2)CC1`, 21.5%.
As for `CN1CCC(Cc2noc(CCc3nc4ccccc4nc3O)n2)CC1`, the cytotoxicity at 70.5 h is -7.26%.
Take `COC(=O)c1c(Cl)c(C2CC2)nc2onc(C)c12`: the cytotoxicity at 70.5 h worked out at 2.98%.
Consider `CCc1ocnc1C(=O)N1CCCC1c1noc(C(C)C)n1` (centres undefined), for which the cytotoxicity at 70.5 h is -11%.
Under `Cc1ccc2ncccc2c1CN1CC[C@H](N(C)C)[C@H](CCC(=O)O)C1` stands -7.41%; under `CC1N(CC2CC2)C(=O)COC12CCN(C(=O)c1cnccn1)CC2` (centres undefined), -5.19%; under `N[C@H]1CN(C(=O)CCc2cc(Cl)no2)C[C@@H]1c1ccccc1`, 29%.
Under `CN(C)C(=O)CC1CC2(CCN(Cc3ccoc3)CC2)c2ccccc21` (centres undefined) stands -2.19%; under `c1ccc2c(c1)COC1(CCCC1)N2`, 22.7%; under `CC(C)CCN(C(=O)Nc1cccc(C(=O)N(C)C)c1)C1CC1`, -7.58%.
Under `COc1cccc(COCC(=O)N2CCCC(c3cc(C)[nH]n3)C2)c1` (centres undefined) stands -14.7%.
Take `Cc1noc(C)c1CN1CCOC2(CCCN(c3nncs3)C2)C1` (centres undefined): the cytotoxicity at 70.5 h is -4.97%.
Consider `O=C(CN1CCOC(c2ccccc2C(F)(F)F)C1)NC1CC1` (centres undefined), for which the cytotoxicity at 70.5 h was -7.54%.
The figure for `O=C(NCc1ccccn1)[C@@]12CCO[C@@H]1CCN(C1CCCC1)C2` is -1.56%; for `O=C(O)[C@]12CCCN(Cc3ccsc3)C[C@H]1CN(c1ccccn1)C2` it is 13.5%; for `CCOCc1nnc2n1CCN(Cc1c(C)noc1C)CC2` it is 16.5%.
For `CS(=O)(=O)N[C@@H]1CN(C(=O)c2ccccn2)[C@@H]2CCCO[C@@H]21`, the cytotoxicity at 70.5 h is -5.15%.
With `CC(C)CN1CCCC1c1cc[nH]n1` (centres undefined), the cytotoxicity at 70.5 h was -1.98%.
The figure for `CCCN(CCO)C(=O)C1CCC(=O)N(Cc2ccc(Cl)cc2)C1` (centres undefined) is -0.953%.
Take `O=C(CCn1ccccc1=O)N1CCN(Cc2cccc(Cl)c2)CC1`: the cytotoxicity at 70.5 h is -12.6%.
Take `Cc1noc(CCCC(=O)N2CCCCC2CNS(C)(=O)=O)n1` (centres undefined): the cytotoxicity at 70.5 h was -9.36%.
Regarding `Cc1noc([C@@H]2CC[C@@H]3[C@@H](CCN3S(=O)(=O)c3cccnc3)O2)n1`, the cytotoxicity at 70.5 h is -4.36%.
Turning to `CC(C(=O)NCc1ccc(N2CCCCC2)nc1)n1cncn1` (centres undefined), the cytotoxicity at 70.5 h was -3.82%.
For the molecule `O=C(NCCn1ccnc1)c1cncc(Br)c1`, the cytotoxicity at 70.5 h was 19.8%.
The figure for `Cc1nn(C)cc1CN(C)C(=O)c1ccncc1` is 2.69%; for `Cc1cnc2n1CCN(C)C21CCN(C(=O)CC(C)C)CC1` it is 3.32%.
Turning to `CNC(=O)Cc1ccc(-n2ccnc2-c2ccc(C(=O)O)s2)cc1`, the cytotoxicity at 70.5 h was -5.64%.
The figure for `CC(C)Nc1ncnc2c1CCN(c1cc(C(F)(F)F)ncn1)CC2` is 3.48%.
Regarding `CC(SCC(=O)NC(N)=O)c1ccccc1F` (centres undefined), the cytotoxicity at 70.5 h is -8.18%.
In the case of `COCCCc1nc(-c2ccc(S(=O)(=O)N3CCCC3)cc2)cs1`, the cytotoxicity at 70.5 h was -4.93%.
For `Cc1cc(CN2CCOC(CNc3cccnn3)C2)on1` (centres undefined), the cytotoxicity at 70.5 h was -0.746%.
Under `Cc1ncsc1C(=O)N1CCC(O)(CN2CCc3ccccc3C2)C1` (centres undefined) stands 10.1%; under `CNc1cncc(C2CCCN2S(=O)(=O)c2cccc(F)c2)n1` (centres undefined), -2.79%; under `CC(NC(=O)CN(C)S(C)(=O)=O)c1nnc2n1CCCCC2` (centres undefined), 48.1%.
Take `O=C(CN1CCCC1c1nc(-c2ccccn2)no1)N1CCOCC1` (centres undefined): the cytotoxicity at 70.5 h was -7.89%.
Take `Cc1ccsc1C(=O)NCc1cccnc1N(C)CCc1ccccn1`: the cytotoxicity at 70.5 h was -7.98%.
The figure for `O=C(c1cnn[nH]1)N(CCCO)Cc1cccnc1` is 1.99%.
For `CN(C)CCOCC1CN(Cc2ccsc2)Cc2nnn(C)c21` (centres undefined), the cytotoxicity at 70.5 h turned out to be 30.5%.
Regarding `CNC(=O)CCN1CCCC1c1ccccc1Br` (centres undefined), the cytotoxicity at 70.5 h came to 28%.
In the case of `O=C1Nc2ccccc2C12CCN(Cc1nccs1)CC2`, the cytotoxicity at 70.5 h is -1.05%.
For `CCn1c(C)nc2cc(NC(=O)C3CN(C(C)=O)C3)ccc21`, the cytotoxicity at 70.5 h is -5.1%.
Under `COCCN1CCCC2(CCN(c3ncc(Cl)cc3Cl)C2)C1=O` (centres undefined) stands -11%; under `CC(C)c1nc(C2CCCN(C(=O)CN3CCCNC3=O)C2)no1` (centres undefined), -6.67%.
Consider `CN(C)C(=O)[C@@H]1C[C@@H]2CCN(C3CCOCC3)C[C@@H]2O1`, for which the cytotoxicity at 70.5 h was found to be 12.2%.
Under `COc1cccc(CC(=O)N2Cc3nccn3CC(CN(C)C)C2)c1` (centres undefined) stands -0.154%.
Under `Cn1cc(N2CCC3(CCN(Cc4cccnc4)C3)C2=O)cn1` (centres undefined) stands -17.1%; under `O=C(CCn1c(C(F)(F)F)cc2cccnc21)N1CCC(O)CC1`, 2.54%; under `CCCOc1ccc(C(=O)N2CCN3CCNC(=O)C3C2)cc1Cl` (centres undefined), -8.43%.
Under `C[C@@H]1CN(c2ccc(C#N)cn2)CC[C@@]1(O)C1CCOCC1` stands 27.2%; under `Cc1nccc(CC2COCCN(c3cnccn3)C2)n1` (centres undefined), 22.7%; under `CC(C)Cc1cc(NC(=O)c2ccc[nH]2)n(C)n1`, -11.1%.
Take `COCc1ccccc1C(=O)N1CCC(CNC(=O)OC(C)(C)C)C1` (centres undefined): the cytotoxicity at 70.5 h was -6.54%.
